In ChEMBL document CHEMBL1201862, “PubChem BioAssay data set” (2004):
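Results reflect a 48-hour exposure of cells in 96-well plates to compound at five concentrations. At the GI50, growth is halved.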 The source made the active and inactive calls. No stated cut-off is given here; in the data, active = GI50 up to about 1.1 µM and inactive = higher.

Tests used:
Experiment in all cases: NCI tumour cell line growth inhibition, 48 h
SNB-75 = tested on: SNB-75
DMS-273 = tested on: DMS-273
HCT-116 = tested on: HCT-116
DMS-114 = tested on: DMS-114
DLD-1 = tested on: DLD-1
EKVX = tested on: EKVX
CCRF-CEM = tested on: CCRF-CEM
SW-620 = tested on: SW-620
SK-MEL-28 = tested on: SK-MEL-28
CAKI-1 = tested on: CAKI-1
OVCAR-5 = tested on: OVCAR-5
UACC-257 = tested on: UACC-257
SK-MEL-2 = tested on: SK-MEL-2
HOP-62 = tested on: HOP-62
COLO 205 = tested on: COLO 205
HL-60 = tested on: HL-60
SR = tested on: SR
M19-MEL = tested on: M19-MEL
UACC-62 = tested on: UACC-62
MOLT-4 = tested on: MOLT-4
HT-29 = tested on: HT-29
SF-539 = tested on: SF-539
IGROV-1 = tested on: IGROV-1
HOP-18 = tested on: HOP-18
LOX IMVI = tested on: LOX IMVI
SNB-19 = tested on: SNB-19
NCI-H226 = tested on: NCI-H226
RXF 393 = tested on: RXF 393
SF-295 = tested on: SF-295
U-251 = tested on: U-251
UO-31 = tested on: UO-31
SN12C = tested on: SN12C
Malme-3M = tested on: Malme-3M
NCI-H23 = tested on: NCI-H23
OVCAR-8 = tested on: OVCAR-8
KM12 = tested on: KM12
OVCAR-3 = tested on: OVCAR-3
KM-20L2 = tested on: KM-20L2
HCC 2998 = tested on: HCC 2998
OVCAR-4 = tested on: OVCAR-4
HOP-92 = tested on: HOP-92
SF-268 = tested on: SF-268
A549 = tested on: A549
LXFL 529 = tested on: LXFL 529
RPMI-8226 = tested on: RPMI-8226
SNB-78 = tested on: SNB-78
SK-OV-3 = tested on: SK-OV-3
ACHN = tested on: ACHN
HCT-15 = tested on: HCT-15
786-0 = tested on: 786-0
M14 = tested on: M14
NCI-H460 = tested on: NCI-H460
K562 = tested on: K562
TK-10 = tested on: TK-10
SK-MEL-5 = tested on: SK-MEL-5
A498 = tested on: A498
NCI-H522 = tested on: NCI-H522

For `CCOC(=O)c1nn2c(nc1=O)sc1ccc3ccccc3c12`, the GI50 (SNB-75) was > 100 µM (inactive), the GI50 (DMS-273) was > 100 µM (inactive) and the GI50 (HCT-116) was > 100 µM (inactive). For the same compound, the GI50 (DMS-114) was > 100 µM (inactive), the GI50 (DLD-1) was > 100 µM (inactive) and the GI50 (EKVX) was > 100 µM (inactive). The GI50 (CCRF-CEM) was 58.2 µM (inactive), the GI50 (SW-620) was > 100 µM (inactive) and the GI50 (SK-MEL-28) was > 100 µM (inactive). The GI50 (CAKI-1) was > 100 µM (inactive), the GI50 (OVCAR-5) was > 100 µM (inactive) and the GI50 (UACC-257) was > 100 µM (inactive). The GI50 (SK-MEL-2) was > 100 µM (inactive), the GI50 (HOP-62) was > 100 µM (inactive) and the GI50 (COLO 205) was > 100 µM (inactive). For the same compound, the GI50 (HL-60) was > 100 µM (inactive), the GI50 (SR) was > 100 µM (inactive) and the GI50 (M19-MEL) was > 100 µM (inactive). For the same compound, the GI50 (UACC-62) was > 100 µM (inactive), the GI50 (MOLT-4) was > 100 µM (inactive) and the GI50 (HT-29) was > 100 µM (inactive). For the same compound, the GI50 (SF-539) was > 100 µM (inactive), the GI50 (IGROV-1) was > 100 µM (inactive) and the GI50 (HOP-18) was > 100 µM (inactive). The GI50 (LOX IMVI) was > 100 µM (inactive), the GI50 (SNB-19) was > 100 µM (inactive) and the GI50 (NCI-H226) was > 100 µM (inactive). The GI50 (RXF 393) was > 100 µM (inactive), the GI50 (SF-295) was > 100 µM (inactive) and the GI50 (U-251) was > 100 µM (inactive). For the same compound, the GI50 (UO-31) was > 100 µM (inactive), the GI50 (SN12C) was > 100 µM (inactive) and the GI50 (Malme-3M) was > 100 µM (inactive). For the same compound, the GI50 (NCI-H23) was > 100 µM (inactive), the GI50 (OVCAR-8) was > 100 µM (inactive) and the GI50 (KM12) was > 100 µM (inactive). For the same compound, the GI50 (OVCAR-3) was > 100 µM (inactive), the GI50 (KM-20L2) was > 100 µM (inactive) and the GI50 (HCC 2998) was > 100 µM (inactive). The GI50 (OVCAR-4) was > 100 µM (inactive), the GI50 (HOP-92) was > 100 µM (inactive) and the GI50 (SF-268) was > 100 µM (inactive). The GI50 (A549) was > 100 µM (inactive), the GI50 (LXFL 529) was > 100 µM (inactive) and the GI50 (RPMI-8226) was > 100 µM (inactive). For the same compound, the GI50 (SNB-78) was > 100 µM (inactive), the GI50 (SK-OV-3) was > 100 µM (inactive) and the GI50 (ACHN) was > 100 µM (inactive). For the same compound, the GI50 (HCT-15) was over 100 µM, the GI50 (786-0) was > 100 µM (inactive) and the GI50 (M14) was > 100 µM (inactive). The GI50 (NCI-H460) was > 100 µM (inactive), the GI50 (K562) was > 100 µM (inactive) and the GI50 (TK-10) was > 100 µM (inactive). For the same compound, the GI50 (SK-MEL-5) was > 100 µM (inactive).
`[O-][S+]1C(=c2ccc(=C3Sc4ccccc4S3)cc2)Sc2ccccc21` (configuration not stated) was tested, and the GI50 (SNB-75) was 19.1 µM (inactive), the GI50 (DMS-273) was 18.9 µM (inactive) and the GI50 (HCT-116) was 25.1 µM (inactive). For the same compound, the GI50 (DMS-114) was 20.8 µM (inactive), the GI50 (DLD-1) was 27.4 µM (inactive) and the GI50 (EKVX) was 20 µM (inactive). For the same compound, the GI50 (CCRF-CEM) was > 94.4 µM (inactive), the GI50 (SW-620) was > 100 µM (inactive) and the GI50 (SK-MEL-28) was 3.03 µM (inactive). For the same compound, the GI50 (CAKI-1) was > 52.7 µM (inactive), the GI50 (OVCAR-5) was 18.3 µM (inactive) and the GI50 (UACC-257) was > 92.5 µM (inactive). For the same compound, the GI50 (A498) was 15.8 µM (inactive), the GI50 (SK-MEL-2) was 21.3 µM (inactive) and the GI50 (HOP-62) was 17.7 µM (inactive). The GI50 (COLO 205) was > 100 µM (inactive), the GI50 (HL-60) was > 100 µM (inactive) and the GI50 (SR) was 89.5 µM (inactive). For the same compound, the GI50 (M19-MEL) was 19.7 µM (inactive), the GI50 (UACC-62) was 18.1 µM (inactive) and the GI50 (MOLT-4) was > 71.9 µM (inactive). For the same compound, the GI50 (HT-29) was 22.6 µM (inactive), the GI50 (SF-539) was 15.6 µM (inactive) and the GI50 (IGROV-1) was 38.5 µM (inactive). For the same compound, the GI50 (HOP-18) was > 100 µM (inactive), the GI50 (LOX IMVI) was 17.9 µM (inactive) and the GI50 (SNB-19) was 17 µM (inactive). For the same compound, the GI50 (NCI-H226) was 19.2 µM (inactive), the GI50 (RXF 393) was 24.2 µM (inactive) and the GI50 (SF-295) was 17.1 µM (inactive). The GI50 (U-251) was 14.9 µM (inactive), the GI50 (UO-31) was 17.2 µM (inactive) and the GI50 (SN12C) was 15.6 µM (inactive). The GI50 (Malme-3M) was > 100 µM (inactive), the GI50 (NCI-H23) was 16.3 µM (inactive) and the GI50 (OVCAR-8) was 17.9 µM (inactive). For the same compound, the GI50 (KM12) was 17.4 µM (inactive), the GI50 (OVCAR-3) was > 100 µM (inactive) and the GI50 (KM-20L2) was 17.3 µM (inactive). The GI50 (HCC 2998) was 16 µM (inactive), the GI50 (OVCAR-4) was 46.8 µM (inactive) and the GI50 (NCI-H522) was > 100 µM (inactive). The GI50 (HOP-92) was > 67.3 µM (inactive), the GI50 (SF-268) was 12.4 µM (inactive) and the GI50 (A549) was 17.6 µM (inactive). The GI50 (LXFL 529) was 51.2 µM (inactive), the GI50 (RPMI-8226) was > 100 µM (inactive) and the GI50 (SNB-78) was 53.3 µM (inactive). The GI50 (SK-OV-3) was 21.8 µM (inactive), the GI50 (ACHN) was 19.5 µM (inactive) and the GI50 (HCT-15) was 15.3 µM. For the same compound, the GI50 (786-0) was 17 µM (inactive), the GI50 (M14) was 15.1 µM (inactive) and the GI50 (NCI-H460) was 18.2 µM (inactive). For the same compound, the GI50 (K562) was > 66.7 µM (inactive), the GI50 (TK-10) was > 100 µM (inactive) and the GI50 (SK-MEL-5) was 19.2 µM (inactive).
